Measurements published in patent US11213597B2, “Kinin-based theranostic probes for solid cancers and uses thereof” (SOCIETE DE COMMERCIALISATION DES PRODUITS DE LA RECHERCHE …, priority 2015, dated 2022).
Where a SMILES comes first, the peptide text is derived from it. [ ]: non-standard residue; d: D form. The star is where a group is joined. ξ: configuration not given here. NOTA = O=C(O)CN1CCN(CC(=O)O)CCN(CC(=O)*)CC1; Oic = O=C(O)[C@@H]1C[C@@H]2CCCC[C@@H]2N1; d2Nal = N[C@H](Cc1ccc2ccccc2c1)C(=O)O; ξαMeF = CC(N)(Cc1ccccc1)C(=O)O; Orn = NCCC[C@H](N)C(=O)O; βAla = NCCC(=O)O

What was measured:
[1] = molecular target: T1, human B1R (Homo sapiens, UniProt P46663); experiment: human bioassay using isolated human umbilical veins, B1R; assay type: cell-based; details: versus the βAla-linked compound
T1 construct: It particularly expresses both kinin B1R and B2R at physiological densities; from tissue; host or cells: isolated human umbilical vein
T1 sequence (P46663 1-353): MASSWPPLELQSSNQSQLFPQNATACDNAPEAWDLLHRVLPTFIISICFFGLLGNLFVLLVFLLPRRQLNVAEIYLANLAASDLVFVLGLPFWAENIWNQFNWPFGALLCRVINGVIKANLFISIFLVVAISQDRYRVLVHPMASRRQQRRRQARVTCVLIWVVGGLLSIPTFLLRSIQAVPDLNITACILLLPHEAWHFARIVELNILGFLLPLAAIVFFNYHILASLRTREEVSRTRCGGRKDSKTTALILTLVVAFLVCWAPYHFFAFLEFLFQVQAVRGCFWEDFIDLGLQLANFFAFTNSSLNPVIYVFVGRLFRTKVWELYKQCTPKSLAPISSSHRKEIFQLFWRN
Description: The apparent affinity constants (or potency) of kinin agonist and antagonist analogues for human B1R were estimated by in vitro human bioassay using isolated human umbilical veins (Gobeil et al., 1996, supra; Côté et al., 2009, supra). […] It particularly expresses both kinin B1R and B2R at physiological densities. Apparent affinities of peptides were defined in terms of EC50 (pD2) values for agonists and IC50 values for antagonists.

[2] = tested on: cancer cells; experiment: cytotoxicity of B1R radionuclide therapy by clonogenic assays; assay type: cell-based; details: non-radioactive surrogate up to 10 μM
Procedure: Cytotoxicity of B1R radionuclide therapy was assessed in cancer cells by clonogenic assays. […] Then, media were removed and colonies fixed/stained with 0.5% methylene blue in 50% ethanol, rinsed with tap water and air dried. Colony counting was performed manually or automatically using the Image Pro Plus 5.1.

[3] = tested on: F98 GBM; experiment: small animal PET imaging, Fischer/F98 malignant glioma model; assay type: in vivo, rat; details: intravenous, F98 GBM-bearing rats
Procedure: The F98 GBM cell line (#CRL-2397) was purchased from American Type Culture Collection (ATCC). Cells were cultured as monolayers in Dulbecco's modified Eagle medium (DMEM) supplemented with 10% fetal bovine serum (FBS) and 1% penicillin-streptomycin mixture at 37° C. in a humidified 5% CO2/95% air incubator. The procedure of F98 glioma cell implantation was similar to that used in our previous studies (Côté et al., 2010, Neuropeptides, 44:177-185). […] All tumor transplantations were successful as determined by histology and/or MRI.
PET scans were performed using a LabPET8 (Gamma Medica Inc.) small animal scanner with an axial field of view of 8 cm. […] PET scans were assessed 1 h and 20 h post-injections. […] Regions of interest were traced for tumor, normal brain, heart, liver, kidney, and muscle, and the activity in each organ was measured and reported to the injected dose for percentages calculation. […] In vivo testing of the novel kinin PET radiotracers was also assessed in a model of tumor metastasis induced by the intracardiac injection of 4T1/luc (bioluminescent) mouse breast cancer cells under ultrasound guidance.

How did the “decrease in affinity to hB1R in absence of linker” value [1] turn out when CC[C@H](C)[C@H](NC(=O)[C@@H](Cc1ccc2ccccc2c1)NC(=O)[C@H](CO)NC(=O)C(C)(Cc1ccccc1)NC(=O)CNC(=O)[C@@H]1CCCN1C(=O)[C@@H]1C[C@@H]2CCCC[C@@H]2N1C(=O)[C@H](CCCNC(=N)N)NC(=O)[C@H](CCCN)NC(=O)CN1CCN(CC(=O)O)CCN(CC(=O)O)CC1)C(=O)O (stereo partly shown) [Cu-NOTA-Orn^1-Arg^2-Oic^3-Pro^4-Gly^5-(αMe)Phe^6-Ser^7-DβNal^8-Ile^9-OH] ({NOTA}-[Orn]R[Oic]PG[ξαMeF]S[d2Nal]I-OH; N-terminus assumed) was run?
The value was 10 fold.

For CC[C@H](C)[C@H](NC(=O)[C@@H](Cc1ccc2ccccc2c1)NC(=O)[C@H](CO)NC(=O)C(C)(Cc1ccccc1)NC(=O)CNC(=O)[C@@H]1CCCN1C(=O)[C@@H]1C[C@@H]2CCCC[C@@H]2N1C(=O)[C@H](CCCNC(=N)N)NC(=O)[C@H](CCCN)NC(=O)CCNC(=O)CN1CCN(CC(=O)O)CCN(CC(=O)O)CC1)C(=O)O (stereo partly shown) [Cu-NOTA-βAla-Orn^1-Arg^2-Oic^3-Pro^4-Gly^5-(αMe)Phe^6-Ser^7-DβNal^8-Ile^9-OH] ({NOTA-βAla}-[Orn]R[Oic]PG[ξαMeF]S[d2Nal]I-OH; N-terminus assumed), which “anticancer activity / therapeutic efficacy” value [2] is on record?
The value was “not seen”.

Which “anticancer activity / therapeutic efficacy” value [2] does the source give for CC(=O)[O-].CC(=O)[O-].[64Cu+2] [^64Cu-acetate, reference compound] here?
The value was “not seen”.

Which “detection of brain tumors by μPET” value [3] does the source give for “^64Cu-NOTA-βAla-DLys^1-Arg^2-Pro^3-Pro^4-Gly^5-Phe^6-Ser^7-Pro^8-DPhe^9-OH (AKRPPGFSPF; 64Cu-NOTA-betaAla N-terminal; D-Lys1, D-Phe9; SITE (1)...(1) beta-alanine; SITE (2)...(2) D-lysine; SITE (10)...(10) D-phenylalanine)” here?
Its value is “properly detected relatively small brain tumors”.
